Assay results from US20240316074A1 (priority 2021, published 2024).
Values after ≈ are worked out from the molar mass of the structure shown.

Legend:
[1] = molecular target: T1, SARS-CoV-2 spike protein S1 subunit (Severe acute respiratory syndrome coronavirus 2, UniProt P0DTC2); format: binding
T1 construct: Recombinant SARS-CoV-2 spike protein S1 subunit (˜72 kDa) containing an N-terminal His-tag; purchased RayBiotech (Peachtree Corners, GA)

[2] = molecular target: T2, transporter ABCG2 (also called BCRP) (Homo sapiens, UniProt Q9UNQ0); details: cited from earlier work
T2 sequence (Q9UNQ0 1-655): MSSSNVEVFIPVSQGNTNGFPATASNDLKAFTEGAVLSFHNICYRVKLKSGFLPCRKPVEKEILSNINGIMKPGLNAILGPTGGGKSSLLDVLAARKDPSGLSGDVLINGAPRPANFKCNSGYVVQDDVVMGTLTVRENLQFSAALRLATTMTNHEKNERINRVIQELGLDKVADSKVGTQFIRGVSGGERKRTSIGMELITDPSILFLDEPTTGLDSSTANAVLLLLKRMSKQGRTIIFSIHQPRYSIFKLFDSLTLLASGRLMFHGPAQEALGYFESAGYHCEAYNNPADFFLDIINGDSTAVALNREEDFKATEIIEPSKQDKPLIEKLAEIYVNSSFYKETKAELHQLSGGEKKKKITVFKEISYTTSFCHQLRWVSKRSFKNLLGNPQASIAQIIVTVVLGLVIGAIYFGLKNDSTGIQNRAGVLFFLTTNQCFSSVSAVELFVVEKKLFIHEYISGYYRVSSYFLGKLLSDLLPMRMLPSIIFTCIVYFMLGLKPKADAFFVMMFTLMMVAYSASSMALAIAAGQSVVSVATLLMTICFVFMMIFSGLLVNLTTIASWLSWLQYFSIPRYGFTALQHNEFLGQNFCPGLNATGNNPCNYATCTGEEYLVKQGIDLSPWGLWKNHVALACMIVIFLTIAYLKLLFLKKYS

[3] = molecular target: T1, SARS-CoV-2 spike protein S1 subunit; experiment: Equilibrium dissociation constants by rapid equilibrium dialysis; format: binding; details: 37° C., PBS pH 7.2
Protocol: Equilibrium dissociation constants. The affinity constants for the binding of active compounds to the spike protein S1 subunit were determined by rapid equilibrium dialysis. First, the optimum time for full equilibration of the RED device obtained from ThermoFisher (Waltham, MA) was determined with each of the compounds by adding 1 μM spike protein in buffer (300 μL) to the protein chamber and adding blank phosphate buffered saline, pH 7.2 (500 μL) to the buffer chamber. CBGA or CBDA was spiked into the protein chamber at a final concentration of 2.5 μM. […] After centrifugation at 18,000 g for 30 min, the supernatant was removed and ligand concentration was measured using UHPLC-MS/MS. Next, the equilibrium dissociation constants of CBGA and CBDA were determined by incubating the spike protein S1 subunit with different concentrations of the ligands ranging from 0.05-500 μM in triplicate. After 5 h for CBGA or 4 h for CBDA, the concentrations of each ligand in the sample and buffer chambers were measured using UHPLC-MS/MS as described above. Data analysis and fitting was carried out using Microsoft Excel (Seattle, WA) and KaleidaGraph v4.1 (Reading, PA).

[4] = human volunteers, oral, 0.063 mg/kg; cited from earlier work
[5] = beagle dogs, oral, 1 mg/kg; cited from earlier work
SARS-CoV-2 (WA1/2020) [6] = experiment: microbe, parasite or virus in culture; format: cell-based; details: Severe acute respiratory syndrome coronavirus 2, Vero C1008
SARS-CoV-2 (WA1/2020) [7] = format: cell-based
SARS-CoV-2 S1 protein = molecular target: T3, SARS-CoV-2 S1 protein (Severe acute respiratory syndrome coronavirus 2, UniProt P0DTC2); experiment: MagMASS competition assay with SBP-1 (binding site determination)
T3 construct: Recombinant SARS-CoV-2 spike protein S1 subunit (˜72 kDa) containing an N-terminal His-tag; purchased RayBiotech (S1); LifeTein (SBP-1 peptide)

Structure (SMILES) | Fold Peak Area Enrichment, Standards mixture [1] | Fold peak area enrichment [1] | binding in competitive binding MagMASS assays [1] | also measured
CCCCCc1cc(O)c2c(c1)OC(C)(CCC=C(C)C)C=C2 (stereo not drawn) [CBC, Cannabichromene] | 2.9 ± 0.75 | 2.9 ± 0.75 | weak or no binding | –
C=C(C)[C@@H]1CCC(C)=C[C@H]1c1c(O)cc(CCCCC)cc1O [CBD, Cannabidiol] | 2.9 ± 0.72 | 2.9 ± 0.72 | weak or no binding | inhibition of the transporter ABCG2 [2]: inhibitors
C=C(C)[C@@H]1CCC(C)=C[C@H]1c1c(O)cc(CCCCC)cc1OC [CBD-OMe] | – | – | – | Fold Peak Area Enrichment, Pure compound [1]: 1.5 ± 0.12
C=C(C)[C@@H]1CCC(C)=C[C@H]1c1c(O)cc(CCCCC)c(C(=O)O)c1O [CBDA, Cannabidiolic acid] | 12.2 ± 0.52 | 12.2 ± 0.52 | – | Kd [3]: 5.6 ± 2.2 µM; Fold Peak Area Enrichment, Extract #5 [1]: 15.0 ± 0.5; Fold Peak Area Enrichment, Pure compound [1]: 15.5 ± 1.1; maximum plasma concentrations [4]: 0.21 µM; bioavailability relative to CBD [5]: 2 fold; serum levels [5]: up to 1.42 μM; tolerability [5]: well tolerated; IC50 (SARS-CoV-2 (WA1/2020) [6]): 24 µg/mL (≈ 66.9 µM); SARS-CoV-2 viral RNA in cells (anti-dsRNA staining) (SARS-CoV-2 (WA1/2020) [7]): absence of SARS-CoV-2 viral RNA; substrate of the efflux transporter ABCG2 [2]: substrate
C=C(C)[C@@H]1CCC(C)=C[C@H]1c1c(O)cc(CCC)cc1O [CBDV, Cannabidivarin] | 1.6 ± 0.17 | 1.6 ± 0.17 | – | –
CCCCCc1cc(O)c(C/C=C(\C)CCC=C(C)C)c(O)c1 [CBG, Cannabigerol] | 3.4 ± 0.82 | 3.4 ± 0.82 | weak or no binding | inhibition of the transporter ABCG2 [2]: inhibitors
CCCCCc1cc(O)c(C/C=C(\C)CCC=C(C)C)c(OC)c1 [CBG-OMe] | – | – | – | Fold Peak Area Enrichment, Pure compound [1]: 1.8 ± 0.07
CCCCCc1cc(O)c(C/C=C(\C)CCC=C(C)C)c(O)c1C(=O)O [CBGA, Cannabigerolic acid] | 20.5 ± 0.51 | 20.5 ± 0.51 | – | Kd [3]: 19.8 ± 2.7 µM; Fold Peak Area Enrichment, Pure compound [1]: 10.9 ± 1.3; IC50 (SARS-CoV-2 (WA1/2020) [6]): 37 µg/mL (≈ 103 µM); SARS-CoV-2 viral RNA in cells (anti-dsRNA staining) (SARS-CoV-2 (WA1/2020) [7]): absence of SARS-CoV-2 viral RNA
CCCCCc1cc(O)c2c(c1)OC(C)(C)c1ccc(C)cc1-2 [CBN, Cannabinol] | 3.4 ± 0.78 | 3.4 ± 0.78 | weak or no binding | –
CCCCCc1cc2c(c(O)c1C(=O)O)-c1cc(C)ccc1C(C)(C)O2 [CBNA, Cannabinolic acid] | – | 5.6 ± 1.4 | – | –
Cc1ccc(NC(=O)c2ccc(CN3CCN(C)CC3)cc2)cc1Nc1nccc(-c2cccnc2)n1 [Imatinib, imatinib] | – | – | – | binding to the immobilized S1 protein in the MagMASS assay [1]: no binding
CCCCCc1cc2c(c(O)c1C(=O)O)[C@@H]1C=C(C)CC[C@H]1C(C)(C)O2 [THCA-A, Tetrahydrocannabinolic acid] | 16.7 ± 2.2 | 16.7 ± 2.2 | – | Fold Peak Area Enrichment, Pure compound [1]: 19.7 ± 2.0
C=CC(C)(C)c1cc(/C=C/C(=O)c2ccc(O)cc2)c(OC)cc1O [licochalcone A] | – | – | – | binding in the presence of SBP-1 (SARS-CoV-2 S1 protein; 2.8 μM SBP-1): reduced; MagMASS peak area enrichment lowered when SBP-1 was added (SARS-CoV-2 S1 protein; SBP-1 added to incubation with active S1 protein): 3 fold
COc1c(C)c2c(c(O)c1C/C=C(\C)CCC(=O)O)C(=O)OC2 [mycophenolic acid] | – | – | – | binding to the immobilized S1 protein in the MagMASS assay [1]: no binding
CCN(CC)CCCC(C)Nc1c2ccc(Cl)cc2nc2ccc(OC)cc12 (stereo not drawn) [quinacrine] | – | – | – | binding to the immobilized S1 protein in the MagMASS assay [1]: no binding
CCCCCc1cc(O)c2c(c1)OC(C)(C)[C@@H]1CC=C(C)C[C@@H]21 [Δ^8-THC, Δ^8-Tetrahydrocannabinol] | 3.1 ± 0.81 | 3.1 ± 0.81 | weak or no binding | –
CCCCCc1cc(O)c2c(c1)OC(C)(C)[C@@H]1CCC(C)=C[C@@H]21 [Δ^9-THC, Δ^9-Tetrahydrocannabinol] | 3.0 ± 0.77 | 3.0 ± 0.77 | weak or no binding | –
